Entries after “also recorded” stand apart in the source; their conditions may differ.
How the values were obtained:
Format in all cases: cell-based, human
[1] = system: cisplatin-resistant ovarian cancer cell line A2780cis; experiment: Caspase-3/7 activity assay (apoptotic cell death), compound alone or with cisplatin; settings: for caspase-3/7 activity (Lum) with compound and cisplatin (20 μM) / caspase-3/7 activity (Lum) with compound alone: Table 6; for caspase-3/7 activity (Lum) with compound alone: untreated cells 9 ± 1
Procedure, shortened: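 Caspase-3/7 activity in A2780cis cells treated with compound alone or with cisplatin, luminescent Caspase-Glo 3/7 read-out. Apoptotic morphology is checked microscopically just before measurement.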

[2] = system: cisplatin-resistant ovarian cancer cell line A2780cis; experiment: CellTiter-Blue cell viability assay, compound alone or with cisplatin or carboplatin, 24 h; settings: 24 h
Protocol: Data were expressed as mean±standard deviation. A Student's t test was used for the comparisons between the treatment with the combination of analogs with cisplatin and with analogs alone. P<0.05 was considered statistically significant. Combination index was calculated using CompuSyn software. A value of 0.3-0.7 for the combination index indicates synergism, 0.1-0.3 indicates strong synergism, and <0.1 indicates very strong synergism (Chou, 2006).
To further validate the activity of the identified 11 active compounds (see FIG. 3), a CellTiter-Blue cell viability assay was performed with increasing concentrations (10 μM, 20 μM and 50 μM) of the disclosed compounds (see FIG. 4 and Table 5). Cisplatin resistant ovarian cancer cells (A2780cis) were treated with a disclosed compound alone, cisplatin alone or a combination of a compound with cisplatin for 24 h to determine the effects of the compounds on cell viability.
Analysis of the effect of the disclosed compounds with another platinum-containing compound, carboplatin, was performed. A2780cis cells were treated with carboplatin alone or with the combination of carboplatin and the disclosed compounds at indicated concentrations for 24 h followed by the analysis of cell viability.

A2780cis cells [3] = experiment: Western blot of caspase/PARP cleavage, Noxa induction, RPA32 and H2AX phosphorylation
Protocol: (§1) Whole cell lysate was prepared by lysing cells in cell lysis buffer (Cell signaling technology) containing complete protease inhibitor (Roche). Cell lysates were then cleared at 15,000 rpm for 15 min at 4° C. The protein content was quantified using a Bio-Rad Protein Assay kit (Bio-Rad Laboratories, Hercules, Calif.). The equal amount of protein was separated on Tris-glycine gels (Invitrogen). The separated proteins were blotted onto a polyvinylidene difluoride membrane and blocked overnight at 4° C. in phosphate-buffered saline containing 0.1% Tween 20 and 10% nonfat dry milk (blocking buffer). Membranes were incubated with primary antibodies in blocking buffer overnight at 4° C. Primary antibodies used were: β-actin from Sigma; Bax, Bak, Caspase-9 and cleaved Caspase-3 from Cell Signaling Technology; phospho-Histone H2AX (Ser 139) and Noxa from Millipore. Membranes were then washed and incubated in peroxidase conjugated anti-rabbit IgG (Sigma) or anti-mouse IgG (Sigma) secondary antibody for 1 h at room temperature. Membranes were developed using SuperSignal West Femto Maximum Sensitivity Substrate (Thermo Fisher Scientific).
A2780cis cells were treated with cisplatin alone, compounds alone or in combination with cisplatin at indicated concentrations for 20 h to analyze apoptotic cell death in response to treatment. […] Expression and cleavage of several major caspases (Caspase-8, Caspase-9 and Caspase-3), as well as poly(ADP-ribose) polymerase (PARP) and NOXA. A2780cis cells were treated with cisplatin (20 μM) alone, compounds (20 μM) alone or in combination with cisplatin for 20 h.
To determine the effects of the compounds on DNA damage and mitochondrial dysfunction, A2780cis cells were treated with cisplatin (20 μM) alone or the combination of cisplatin with 20 μM of compound 1-6. Replication protein A (RPA) is a single strand-specific DNA-binding protein, consisting of three subunits, RPA70, RPA32, and RPA14. RPA32 is phosphorylated in response to DNA replication stress. Western blot analysis was performed to evaluate the phosphorylation of RPA32 and histone H2AX, the induction of Noxa expression and cleavage of caspase-3. […] A2780cis cells were treated with cisplatin (50 μM) alone, 1-6 (50 μM) alone or the combination of cisplatin and compound 1-6 for 4 h. The oxygen consumption rate (OCR) was measured by a Seahorse extracellular flux analyzer.

A2780cis cells [4] = experiment: Short-term (3 h) exposure, cell survival by CellTiter-Blue after 48 h in compound free media; settings: cisplatin alone, viability after two days, in words
Protocol: FIG. 5. Short-term exposure of A2780cis cells to the combination of cisplatin and compound 1-6 dramatically reduces cell survival. A2780cis cells were treated with increasing doses of cisplatin alone or the combination of cisplatin with compound 1-6 (20 μM) for 3 h. The compounds were then washed out. Cell survival was determined after 48 h incubation of cells in compound free media by CellTiter-Blue assay.
Further analysis was performed with compound 1-6. […] This synergism for the combination of cisplatin and 1-6 was further confirmed using a fresh sample of high chemical purity (98%). This synergistic effect was also observed using the CellTiter-Blue cell viability assay (FIG. 5) under an alternative exposure strategy that mimics in viva drug administration to test the combination effect. Considering the clearance of cisplatin over the time and the duration of exposure of tumor cells to the effective doses of the drugs in vivo (Los et al., 1989), a short-term exposure of cells to the combination of 20 μM of 1-6 with various doses of cisplatin was tested, followed by cell viability assay after two days.

[5] = system: PEO4, SKOV3, H1299, MDA-MB-231, Ca133 cells; experiment: Western blot of PARP and Caspase-3 cleavage in other cisplatin-resistant cancer cells; settings: 20 μM alone, 20 h, FIG. 9; in words
Protocol: FIG. 9. The combination of cisplatin and compound 1-6 triggers extensive apoptosis in various types of cisplatin- and multidrug-resistant tumor cells. Cisplatin-resistant cancer cells PEO4 (ovarian), SKOV3 (ovarian), H1299 (lung), MDA-MB-231 (breast), Ca133 (head & neck) were treated with DMSO (untreated), cisplatin (20 μM) alone, compound 1-6 (20 μM) alone, or the combination for 20 h. Cleavage of PARP and Caspase-3 were determined by western blot.
as §1
To evaluate whether the synergistic effects of the disclosed compounds and cisplatin could be extended to other types of cancer cells, breast cancer cells (MDA-MB-231), non-small cell lung carcinoma cells (H-1299), ovarian cancer cells (PEO4 and SKOV3) and head and neck cancer cells (Ca133) were treated with various combinations of cisplatin and compound 1-6 and analyzed for Caspase-3.

[6] = Table 1, compound 20 μM, 20 h, mean ± S.D. of triplicates

CCc1ccccc1-n1c(=S)[nH]c2ccccc2c1=O [Compound 1-19]
activation of Caspase-3/7 in combination with cisplatin compared to mdivi-1 ([1]; FIG. 7A and Table 6, in words): more effective; also recorded: more potent than mdivi-1 | caspase-3/7 activity (Lum), compound with cisplatin ([1]; Table 1, compound 20 μM with 20 μM cisplatin, 20 h): 136 ± 12 Lum | caspase-3/7 activity (Lum), compound alone [1, 6]: 12 ± 1 Lum | caspase-3/7 activity (Lum), compound alone ([1]; Table 2, compound 20 μM, 20 h): 12 ± 1 Lum | caspase-3/7 activity (Lum) with compound and cisplatin (20 μM) ([1]; compound 5 μM + cisplatin 20 μM, 20 h): 36 ± 3 Lum | caspase-3/7 activity (Lum) with compound alone ([1]; compound 5 μM, 20 h): 9 ± 2 Lum | caspase-3/7 activity (Lum) with compound and cisplatin (20 μM) ([1]; compound 10 μM + cisplatin 20 μM, 20 h): 114 ± 5 Lum | caspase-3/7 activity (Lum) with compound alone ([1]; compound 10 μM, 20 h): 8 ± 1 Lum | caspase-3/7 activity (Lum) with compound and cisplatin (20 μM) ([1]; compound 20 μM + cisplatin 20 μM, 20 h): 96 ± 11 Lum | caspase-3/7 activity (Lum) with compound alone ([1]; compound 20 μM, 20 h): 9 ± 1 Lum | activity in the screen (Caspase-3/7 activity and microscopic examination), active / inactive ([1]; alone or in the presence of cisplatin, in words): active | Caspase-3/7 activity upon combination with cisplatin compared to cisplatin alone or compound alone ([1]; in words): increase in Caspase-3/7 activity | cell viability after combination with carboplatin compared to carboplatin alone ([2]; FIG. 6, in words): cell viability was reduced | viability at 10 µM ([2]; Homo sapiens, A2780cis, compound 10 μM, untreated cells = 100%, read-out: survival (%) of cells with compound alone): 103 ± 1.2% | viability at 20 µM ([2]; Homo sapiens, A2780cis, compound 20 μM, untreated cells = 100%, read-out: survival (%) of cells with compound alone): 99.6 ± 3% | viability at 50 µM ([2]; Homo sapiens, A2780cis, compound 50 μM, untreated cells = 100%, read-out: survival (%) of cells with compound alone): 98.5 ± 1.7% | Survival (%) of cells with compound and carboplatin (200 μM) ([2]; compound 10 μM + carboplatin 200 μM): 103.5 ± 1.6% | survival (%) of cells with compound and cisplatin (20 μM) ([2]; compound 10 μM + cisplatin 20 μM): 47.9 ± 4.8% | Survival (%) of cells with compound and carboplatin (200 μM) ([2]; compound 20 μM + carboplatin 200 μM): 70.0 ± 2.9% | survival (%) of cells with compound and cisplatin (20 μM) ([2]; compound 20 μM + cisplatin 20 μM): 25.3 ± 1.0% | Survival (%) of cells with compound and carboplatin (200 μM) ([2]; compound 50 μM + carboplatin 200 μM): 31.6 ± 4.2% | survival (%) of cells with compound and cisplatin (20 μM) ([2]; compound 50 μM + cisplatin 20 μM): 4.9 ± 1.4% | cleavage of caspases and PARP, induction of Noxa in combination with cisplatin (A2780cis cells [3]; compound 20 μM + cisplatin 20 μM, 20 h, FIG. 7B, in words): cleavage of Caspase-8, 9, 3, PARP and the induction of Noxa

N.N.[Cl][Pt][Cl] [cisplatin, reference compound]
caspase-3/7 activity (Lum), compound alone [1, 6]: 30 ± 1 Lum | caspase-3/7 activity (Lum), compound alone ([1]; Table 2, compound 20 μM, 20 h): 30 ± 1 Lum | caspase-3/7 activity (Lum), compound alone ([1]; Table 3, compound 20 μM, 20 h): 35 ± 4 Lum | caspase-3/7 activity (Lum), compound alone ([1]; Table 4, compound 20 μM, 20 h): 35 ± 4 Lum | caspase-3/7 activity (Lum) with compound alone ([1]; compound 20 μM, 20 h): 28 ± 4 Lum | survival (%) of cells with compound alone ([2]; compound 20 μM, untreated cells = 100%): 89.3 ± 0.6% | effect of 3 hr exposure to cisplatin alone on cell viability (A2780cis cells [4]): slight effect on cell viability | time of increase in the phosphorylation of RPA32 post treatment, cisplatin alone (A2780cis cells [3]; cisplatin 20 μM alone, FIG. 8A): > 12 h | cell death after single compound exposure [5]: minimal effect in inducing cell death

From US10478437B2, “Combination therapy to enhance the anticancer efficacy of platinum drugs” (University of Pittsburgh-of the Commonwealth System of …, priority 2014, dated 2019)
